Data from patent EP0183129A1, “Quinolonecarboxylic acid derivatives” (KYORIN PHARMACEUTICAL CO., LTD., priority 1984, dated 1986).
In brackets after ≈: the same amount, converted by molar mass. Counter-ions that a name gives are not always drawn. Like-named read-outs stand apart in the source and are kept apart here.

Columns and labels:
[1] = system: Bacillus subtilis PCI 219; assay: In vitro antibacterial activity, MIC (standard strain); format: cell-based; settings: PCI219
[2] = system: Staphylococcus aureus 209 P; assay: as above; format: cell-based
[3] = system: S. aureus IID 670 (Terajima); assay: as above; format: cell-based, Staphylococcus aureus; settings: Staphylococcus aureus
S. epidermidis IID 866 = assay: as above; format: cell-based; settings: Staphylococcus epidermidis
S. pyogenes IID 692 = assay: as above; format: cell-based; settings: Streptococcus pyogenes, IID692; S. pyogenes IID 692; 10^6 cells/ml; standard strain; read-out: MIC
S. faecalis IID 682 = assay: as above; format: cell-based; settings: Enterococcus faecalis, IID682; S. faecalis IID 682; 10^6 cells/ml; standard strain; read-out: MIC
P. mirabilis IID 994 = assay: as above; format: cell-based; settings: Proteus mirabilis, IID994
[4] = system: Citrobacter freundii IID 976; assay: as above; format: cell-based; settings: IID976; Citrobacter freundii IID 976; 10^6 cells/ml; standard strain; read-out: MIC
K. pneumoniae 1-220S = assay: as above; format: cell-based; settings: Klebsiella pneumoniae, 1220S; K. pneumoniae 1-220S; 10^6 cells/ml; standard strain; read-out: MIC
Shigella sonnei IID 969 = assay: as above; format: cell-based; settings: IID969, 10^6 cells/ml
Method: Experiment-1 In vitro antibacterial activity
The in vitro antibacterial activity against gram-positive and gram-negative bacteria has been investivated.
The minimum inhibitory concentration (MIC) was determined in accordance with the method recommended by Japan Society of Chemotherapy.

[5] = system: Yersinia enterocolitica IID 981; assay: as above; format: cell-based; settings: IID981; Yersinia enterocolitica IID 981; 10^6 cells/ml; standard strain; read-out: MIC
[6] = system: Pseudomonas aeruginosa V-1; assay: as above; format: cell-based; settings: V1
[7] = system: Alcaligenes faecalis 0104002; assay: as above; format: cell-based
[8] = system: Bacteroides fragilis GM 7000; assay: as above; format: cell-based; settings: GM7000; Bacteroides fragilis GM 7000; 10^6 cells/ml; standard strain; read-out: MIC
B. fragilis 25285 = assay: as above; format: cell-based, Bacteroides fragilis; settings: Bacteroides fragilis, 25285, B. fragilis 25285; 10^6 cells/ml; standard strain; read-out: MIC
C. difficile I-E = assay: as above; format: cell-based; settings: Clostridioides difficile; C. difficile I-E; 10^6 cells/ml; standard strain; read-out: MIC
S. pneumoniae 2054 = assay: In vitro antibacterial activity, MIC (clinical isolates); format: cell-based; settings: Streptococcus pneumoniae; S. pneumoniae 2054; 10^6 cells/ml; clinical isolate; read-out: MIC
S. pneumoniae 2950 = assay: as above; format: cell-based; settings: Streptococcus pneumoniae; S. pneumoniae 2950; 10^6 cells/ml; clinical isolate; read-out: MIC
S. pneumoniae 3227 = assay: as above; format: cell-based; settings: Streptococcus pneumoniae; S. pneumoniae 3227; 10^6 cells/ml; clinical isolate; read-out: MIC
S. pyogenes 4340 = assay: as above; format: cell-based; settings: Streptococcus pyogenes; S. pyogenes 4340; 10^6 cells/ml; clinical isolate; read-out: MIC
S. pyogenes 4372 = assay: as above; format: cell-based; settings: Streptococcus pyogenes; S. pyogenes 4372; 10^6 cells/ml; clinical isolate; read-out: MIC
S. agalactiae 4394 = assay: as above; format: cell-based; settings: Streptococcus agalactiae; S. agalactiae 4394; 10^6 cells/ml; clinical isolate; read-out: MIC
S. agalactiae 4342 = assay: as above; format: cell-based; settings: Streptococcus agalactiae; S. agalactiae 4342; 10^6 cells/ml; clinical isolate; read-out: MIC
S. faecalis 401 = assay: as above; format: cell-based; settings: Enterococcus faecalis; S. faecalis 401; 10^6 cells/ml; clinical isolate; read-out: MIC
E. coli ML4707 = assay: In vivo antibacterial activity against systemic infection in mice; set-up: species or system mice (ICR-S); settings: Escherichia coli, ML4707; mice (ICR-S); oral, an hour after intraperitoneal infection; challenge dose 2.7 x 10^6 ~ 8.8 x 10^6 cfu/mouse; read-out: ED50 E. coli ML4707
Method: Experiment-2 In vivo antibacterial activity against systemic infection in mice (ICR-S)
The infections were produced by intraperitoneal injection of a suspension of the bacterial culture corresponding to the germ studied. The products were administered orally at an hour after the infection.

[9] = Bacillus subtilis PCI 219, 10^6 cells/ml, standard strain, read-out: MIC
[10] = Staphylococcus aureus 209 P, 10^6 cells/ml, standard strain, read-out: MIC
[11] = IID670, S. aureus IID 670 (Terajima), 10^6 cells/ml, standard strain, read-out: MIC
[12] = IID866, S. epidermidis IID 866, 10^6 cells/ml, standard strain, read-out: MIC
[13] = P. mirabilis IID 994, 10^6 cells/ml, standard strain, read-out: MIC
[14] = Pseudomonas aeruginosa V-1, 10^6 cells/ml, standard strain, read-out: MIC
[15] = Alcaligenes faecalis, 0104002, Alcaligenes faecalis 0104002, 10^6 cells/ml, standard strain, read-out: MIC

SMILES: CCNCC1CCN(c2cc3c(cc2F)c(=O)c(C(=O)O)cn3C2CC2)C1.Cl (stereo not drawn) [Example 7, 1-Cyclopropyl-7-(3-ethylaminomethyl-1-pyrrolidinyl)-6-fluoro-1,4-dihydro-4-oxo-3-quinolinecarboxylic acid hydrochloride]
- MIC [1, 9]: 0.025 µg/mL
- MIC [2, 10]: 0.1 µg/mL
- MIC [3, 11]: 0.1 µg/mL
- MIC (S. epidermidis IID 866; [12]): 0.05 µg/mL
- MIC (S. pyogenes IID 692): 0.39 µg/mL
- MIC (S. faecalis IID 682): 0.39 µg/mL
- MIC (P. mirabilis IID 994; [13]): 0.2 µg/mL
- MIC [4]: 0.1 µg/mL
- MIC (K. pneumoniae 1-220S): 0.2 µg/mL
- MIC (Shigella sonnei IID 969): 0.05 µg/mL
- MIC [5]: 0.39 µg/mL
- MIC [6, 14]: 1.56 µg/mL
- MIC [7, 15]: 1.56 µg/mL
- MIC [8]: 25 µg/mL
- MIC (B. fragilis 25285): 25 µg/mL
- MIC (C. difficile I-E): 12.5 µg/mL
- MIC (S. pneumoniae 2054): 0.39 µg/mL
- MIC (S. pneumoniae 2950): 0.39 µg/mL
- MIC (S. pneumoniae 3227): 0.39 µg/mL
- MIC (S. pyogenes 4340): 0.2 µg/mL
- MIC (S. pyogenes 4372): 0.2 µg/mL
- MIC (S. agalactiae 4394): 0.39 µg/mL
- MIC (S. agalactiae 4342): 0.39 µg/mL
- MIC (S. faecalis 401): 0.78 µg/mL

SMILES: CNCC1CCN(c2cc3c(cc2F)c(=O)c(C(=O)O)cn3C2CC2)C1 (stereo not drawn) [Example 9, 1-Cyclopropyl-6-fluoro-1,4-dihydro-7-(3-methylaminomethyl-l-pyrrolidinyl)-4-oxo-3-quinolinecarboxylic acid hydrochloride]
- MIC [1, 9]: 0.05 µg/mL
- MIC [2, 10]: 0.2 µg/mL
- MIC [3, 11]: 0.2 µg/mL
- MIC (S. epidermidis IID 866; [12]): 0.1 µg/mL
- MIC (S. pyogenes IID 692): 0.2 µg/mL
- MIC (S. faecalis IID 682): 0.39 µg/mL
- MIC (P. mirabilis IID 994; [13]): 0.39 µg/mL
- MIC [4]: 0.2 µg/mL
- MIC (K. pneumoniae 1-220S): 0.39 µg/mL
- MIC (Shigella sonnei IID 969): 0.1 µg/mL
- MIC [5]: 0.39 µg/mL
- MIC ([6]; Pseudomonas aeruginosa): 1.56 µg/mL
- MIC ([7]; Alcaligenes faecalis, 0104002): 1.56 µg/mL
- MIC [8]: 25 µg/mL
- MIC (B. fragilis 25285): 25 µg/mL
- MIC (C. difficile I-E): 12.5 µg/mL
- MIC (S. pneumoniae 2054): 0.78 µg/mL
- MIC (S. pneumoniae 2950): 0.78 µg/mL
- MIC (S. pneumoniae 3227): 0.39 µg/mL
- MIC (S. pyogenes 4340): 0.2 µg/mL
- MIC (S. pyogenes 4372): 0.2 µg/mL
- MIC (S. agalactiae 4394): 0.78 µg/mL
- MIC (S. agalactiae 4342): 0.39 µg/mL
- MIC (S. faecalis 401): 0.78 µg/mL

SMILES: NCC1CCN(c2c(F)cc3c(=O)c(C(=O)O)cn(C4CC4)c3c2Br)C1 (stereo not drawn) [Example 15, 7-(3-Aminomethyl-l-pyrrolidinyl)-8-bromo-l-cyclopropyl-6-fluoro-1,4-dihydro-4-oxo-3-quinolinecarboxylic acid]
- MIC ([1]; Bacillus subtilis): 0.0125 µg/mL (≈ 0.0295 µM)
- MIC ([2]; Staphylococcus aureus, 209P): 0.0125 µg/mL (≈ 0.0295 µM)
- MIC ([3]; IID670): 0.0125 µg/mL (≈ 0.0295 µM)
- MIC (S. epidermidis IID 866; IID866): 0.0125 µg/mL (≈ 0.0295 µM)
- MIC (S. pyogenes IID 692): 0.05 µg/mL (≈ 0.118 µM)
- MIC (S. faecalis IID 682): 0.1 µg/mL (≈ 0.236 µM)
- MIC (P. mirabilis IID 994): 0.0125 µg/mL (≈ 0.0295 µM)
- MIC [4]: 0.025 µg/mL (≈ 0.0589 µM)
- MIC (K. pneumoniae 1-220S): 0.05 µg/mL (≈ 0.118 µM)
- MIC (Shigella sonnei IID 969): 0.0125 µg/mL (≈ 0.0295 µM)
- MIC [5]: 0.05 µg/mL (≈ 0.118 µM)
- MIC [6, 14]: 0.1 µg/mL (≈ 0.236 µM)
- MIC [7, 15]: 0.2 µg/mL (≈ 0.471 µM)
- MIC [8]: 0.1 µg/mL (≈ 0.236 µM)
- MIC (B. fragilis 25285): ≤ 0.05 µg/mL
- MIC (S. pneumoniae 2054): 0.1 µg/mL (≈ 0.236 µM)
- MIC (S. pneumoniae 2950): 0.05 µg/mL (≈ 0.118 µM)
- MIC (S. pneumoniae 3227): 0.05 µg/mL (≈ 0.118 µM)
- MIC (S. pyogenes 4340): 0.05 µg/mL (≈ 0.118 µM)
- MIC (S. pyogenes 4372): 0.05 µg/mL (≈ 0.118 µM)
- MIC (S. agalactiae 4394): 0.2 µg/mL (≈ 0.471 µM)
- MIC (S. agalactiae 4342): 0.1 µg/mL (≈ 0.236 µM)
- MIC (S. faecalis 401): 0.2 µg/mL (≈ 0.471 µM)
- ED50 (E. coli ML4707): 7.1 mg/kg
